Data as given in patent US4195101A, “2',6'-Dihydroxy-9-(2,5-dihydroxyphenyl)octylphenone and its use as an anti-oxidant” (The Lion Dentifrice Co. Ltd., priority 1977, dated 1980).

Key:
[1] = Test I: peroxide value of refined lard by the active oxygen method (AOM); conditions: 0.02% by weight in lard, 97.5° C.
Method: (§1) The above-obtained compound was tested for its anti-oxidative effects in terms of peroxide value by the active oxygen method (AOM) and also in terms of oxygen absorption. […] Each of the tests I and II are described below together with the results thereof.
Varied amounts of the compound were admixed with and uniformly dissolved in portions of refined lard each weighing 20 g to prepare test samples. Each test sample was kept in an oil bath of thermostat at 97.5°±0.5° C., while air was forcedly blown into the lard at a rate of […].
The thus treated samples of the lard were analyzed for the peroxide value (POV for brevity) periodically or at certain intervals, in accordance with the modified Lea's method as described in "Yukagaku" (Journal of Japan Oil Chemist Society), vol. 19(15), p. 340, 1970.
In comparison, similar experiments were undertaken for the samples of the same lard with addition of BHA instead of the compound of the present invention or without addition of any anti-oxidant.

[2] = Test II: oxygen absorption in corn salad oil, Warburg's manometer; conditions: 0.02% by weight in corn salad oil, 60° C.
Method: as §1
The compound of the present invention was determined for the rate of oxygen absorption in a corn salad oil to which 0.02% by weight of the compound had been added. For the purpose, 2 grams of the corn salad oil sample was taken in the receptacle of Warburg's manometer with thermostat at 60°±0.1° C., which was shaken with 110 vibrations per minute in a vibration amplitude of 60 mm. The rate of oxygen absorption was determined by reading the manometer according to the procedure set forth in "Jikken Kagaku Koza" (Lectures in Experimental Chemistry), vol. 24, p. 85, 1958, Maruzen Publishing, Japan. In this testing, the receptacle was totally wrapped with an aluminum foil to prevent the photooxidation of the oil, and mercury was used as the manometer fluid in place of Brodie's solution in order to minimize any possible influence caused by fluctuations in the atmospheric pressure.
Further, in comparison, a similar test was conducted using the same corn salad oil with addition of 0.02% by weight of BHA or without addition of any anti-oxidant.

mouse = conditions: comparison value for BHA; cited from earlier work

COc1ccc(O)c(C(C)(C)C)c1 [BHA, butylhydroxyanisole, reference compound]
Peroxide value ([1]; 8 hours): 2.8 meq./kg | Peroxide value ([1]; 16 hours): 5.1 meq./kg | Peroxide value ([1]; 24 hours): 7.9 meq./kg | Peroxide value ([1]; 32 hours): 13.8 meq./kg | Peroxide value ([1]; 40 hours): 28.9 meq./kg | Peroxide value ([1]; 48 hours): 33.1 meq./kg | Peroxide value ([1]; 56 hours): 43.1 meq./kg | Peroxide value ([1]; 64 hours): 97.3 meq./kg | Peroxide value ([1]; 72 hours): 296.7 meq./kg | Oxygen absorption ([2]; 85 hours): 57.6 μ1/g | Oxygen absorption ([2]; 140 hours): 116.2 μ1/g | Oxygen absorption ([2]; 166 hours): 174.8 μ1/g | Oxygen absorption ([2]; 199 hours): 219.0 μ1/g | Oxygen absorption ([2]; 263 hours): 478.9 μ1/g | Oxygen absorption ([2]; 288 hours): 697.8 μ1/g | Oxygen absorption ([2]; 320 hours): 922.9 μ1/g | Oxygen absorption ([2]; 343 hours): 1124.2 μ1/g | LD50 value (mouse): 1,100 mg/kg
